Measured values taken from patent US20230242669A1, “ANTIBODY THAT BINDS ERBB-2 AND ERBB-3” (Merus N.V., priority 2014, published 2023).

What follows are molecules tested on HER2 overexpressing cells (SK-BR-3, BT-474, N87) (assay: Drug combinations with PB4188 in vitro (checkerboard, isobolograms)). Conditions: HER2 amplified cells, HRG.
Type: cell-based, human
Protocol: Moreover, combination with chemotherapeutic drugs and cyclin inhibitors were tested. Combinations were tested on HER2 overexpressing cells growing in the presence of HRG in […]® (SK-BR-3 and BT-474) or in the presence of HRG stress concentrations (N87 and SK-BR-3 as described in proliferation assays). The inhibitory effect of drug combinations was tested by imaging or by measuring proliferation using Alamar Blue as described herein before. […] The extent of growth inhibition obtained with each combination was calculated. […] The inhibition values of the combination experiments were used by CHALICE™ Analyzer software to generate the isobolograms.
`CCOc1cc2ncc(C#N)c(Nc3ccc(OCc4ccccn4)c(Cl)c3)c2cc1NC(=O)/C=C/CN(C)C` [neratinib] was tested, and the “Drug combination with PB4188 (isobologram analysis)” value was “synergistic”. In the case of `CC(=O)O[C@H]1C(=O)[C@@]2(C)[C@H]([C@H](OC(=O)c3ccccc3)[C@]3(O)C[C@H](OC(=O)[C@H](O)[C@@H](NC(=O)c4ccccc4)c4ccccc4)C(C)=C1C3(C)C)[C@]1(OC(C)=O)CO[C@@H]1C[C@@H]2O` [paclitaxel], the “Drug combination with PB4188 (isobologram analysis)” value is reported as “synergistic”. In the case of `CS(=O)(=O)CCNCc1ccc(-c2ccc3ncnc(Nc4ccc(OCc5cccc(F)c5)c(Cl)c4)c3c2)o1` [lapatinib], the “Drug combination with PB4188 (isobologram analysis)” value is reported as “synergistic”. For `NC1(c2ccc(-c3nc4ccn5c(=O)[nH]nc5c4cc3-c3ccccc3)cc2)CCC1` [MK-2206], the “Drug combination with PB4188 (isobologram analysis)” value was “synergistic”. With `CO[C@H]1C[C@@H]2CC[C@@H](C)[C@@](O)(O2)C(=O)C(=O)N2CCCC[C@H]2C(=O)O[C@H]([C@H](C)C[C@@H]2CC[C@@H](OCCO)[C@H](OC)C2)CC(=O)[C@H](C)/C=C(\C)[C@@H](O)[C@@H](OC)C(=O)[C@H](C)C[C@H](C)/C=C/C=C/C=C/1C` [everolimus] the “Drug combination with PB4188 (isobologram analysis)” value was “synergistic”. For `Cc1nc(NC(=O)N2CCC[C@H]2C(N)=O)sc1-c1ccnc(C(C)(C)C(F)(F)F)c1` [BYL719], the “Drug combination with PB4188 (isobologram analysis)” value was “synergistic”. With `O=C(CCCCCCC(=O)Nc1ccccc1)NO` [vorinostat] the “Drug combination with PB4188 (isobologram analysis)” value was “synergistic”.
